Experimental data: patent publication US5527820A, “Antibiotics having immunosuppressive activity, delaminomycins and processes for the production of the same” (priority 1992, dated 1996)
Converted amounts (≈) assume the structure as drawn.

Columns and labels:
Gram-positive bacteria = assay: Antibacterial activity to Gram-positive bacteria; format: cell-based; details: result in words
From the text: Delaminomycins A, B, C, A2, B2 and C2 according to this invention further have an antibacterial activity against a variety of bacteria. The minimum growth inhibitory concentrations (MIC) (μg/ml) of the novel antibiotics of this invention on various bacteria and fungi as measured by the agar plate dilution method are shown in Table 5a, Table 5b, Table 5c and Table 5d below.

[1] = tested on: nylon wool-passed cells of spleen cells (responder cell; T cells); assay: Inhibitory activity to the mixed lymphocyte culture reaction; format: cell-based, rat (Fischer F344 responder; WKY stimulator)
Mouse leukemia L-1210 = assay: Inhibitory activity on proliferation of cancer cells; format: cell-based; details: L1210
Solubility = details: result in words
[2] = tested on: delayed-type hypersensitivity (DTH); assay: Suppressive effect on delayed-type hypersensitivity (DTH) in mouse, oral; format: in vivo, mouse (CDF1); details: oral once a day, 0~4th day
Procedure: CDF1 mice were immunized by intravenously injecting sheep red blood cells (10^5 cells/mouse). On the 4th day after the immunization, sheep red blood cells (10^8 cells/mouse) were subcutaneously injected into the footpad of mice for the elicitation to cause a delayed-type hypersensitivity. Test compound was orally administered to the mice once a day from the 0 th day to the 4 th day after the immunization. On the 5th day after the elicitation, the thickness of the mouse footpad was measured to estimate the suppressive effect of the test compound on DTH. The suppressive effect of the test compound was evaluated in terms of the inhibition rate (%) as calculated according to the following equation:
Inhibition rate (%)=100-(T/C×100)
wherein T denotes the thickness of the footpad when the test compound was administered, but C denotes the thickness of the footpad when no test compounnd was administered.

[3] = Absorption into the digestive tracts on oral administration; details: result in words
[4] = tested on: spleen cells (T cells activated by Concanavalin A); assay: Inhibitory activity against blastogenesis and proliferation of spleen cells caused by mitogen (Con A); format: cell-based, mouse (CDF1)

SMILES: CCC(O)C(C)/C=C/C=C/C1CC2C=CC3CC(C)CC(C)C3C2(C)C(=O)C12C(=O)CNC2=O (stereo not drawn) [Delaminomycin C2]
- antibacterial activity to Gram-positive bacteria (Gram-positive bacteria): antibacterial activity to Gram-positive bacteria
- inhibition at 0.1 µg/mL ([1]; Rattus norvegicus, T-cell, 0.10 μg/ml test compound, read-out: Inhibition rate): -7%
- inhibition at 0.39 µg/mL ([1]; Rattus norvegicus, T-cell, 0.39 μg/ml test compound, read-out: Inhibition rate): -6%
- inhibition at 1.56 µg/mL ([1]; Rattus norvegicus, T-cell, 1.56 μg/ml test compound, read-out: Inhibition rate): 1%
- inhibition at 6.25 µg/mL ([1]; Rattus norvegicus, T-cell, 6.25 μg/ml test compound, read-out: Inhibition rate): -1%
- inhibition at 25 µg/mL ([1]; Rattus norvegicus, T-cell, 25 μg/ml test compound, read-out: Inhibition rate): 29%
- inhibition at 100 µg/mL ([1]; Rattus norvegicus, T-cell, 100 μg/ml test compound, read-out: Inhibition rate): 99%
- IC50 ([1]; Rattus norvegicus, T-cell, 120 hours, 3H-thymidine incorporation, read-out: IC50 (inhibition of mixed lymphocyte culture reaction)): 37.9 µg/mL (≈ 81 µM)
- activity to inhibit the proliferation of the T cells (responder cell) in mixed lymphocyte culture reaction ([1]; in vitro, result in words): have an activity to inhibit the reaction of proliferation of the T cells
- IC50 (Mouse leukemia L-1210): 3.6 µg/mL (≈ 7.7 µM)
- Solubility (Solubility; various solvents): Soluble in methanol, ethyl acetate and chloroform but slightly soluble or insoluble in n-hexane and water
- Solubility in water (Solubility; water): barely soluble in water
- Inhibition rate (DTH footpad thickness) ([2]; 2.0 mg/mouse): 25.7%
- absorption into the digestive tracts / oral absorption [3]: hardly absorbed into the digestive tracts
- IC50 ([4]; Mus musculus, T-cell, read-out: IC50 (inhibition of blastogenesis and proliferation of spleen lymphocyte caused by Con A)): 1.6 µg/mL (≈ 3.42 µM)
- inhibition at 0.1 µg/mL ([4]; Mus musculus, T-cell, 0.1 μg/ml test compound, read-out: Inhibition rate): 0%
- inhibition at 0.39 µg/mL ([4]; Mus musculus, T-cell, 0.39 μg/ml test compound, read-out: Inhibition rate): 0%
- inhibition at 1.56 µg/mL ([4]; Mus musculus, T-cell, 1.56 μg/ml test compound, read-out: Inhibition rate): 49%
- inhibition at 6.25 µg/mL ([4]; Mus musculus, T-cell, 6.25 μg/ml test compound, read-out: Inhibition rate): 84%
- inhibition at 25 µg/mL ([4]; Mus musculus, T-cell, 25 μg/ml test compound, read-out: Inhibition rate): 85%
- inhibition at 100 µg/mL ([4]; Mus musculus, T-cell, 100 μg/ml test compound, read-out: Inhibition rate): 93%
- activity inhibitory to the reaction of proliferation of mouse spleen cells activated with Concanavalin A ([4]; in vitro, result in words): exhibit an activity inhibitory to the reaction of proliferation of mouse spleen cells

SMILES: CCC(OS(=O)(=O)O)C(C)/C=C/C=C/C1CC2C=CC3CC(C)CC(C)C3C2(C)C(=O)C12C(=O)NC(OC)C2=O (stereo not drawn)
- Inhibition rate (DTH footpad thickness) ([2]; 2.0 mg/mouse): 40.2%

SMILES: CCC(OS(=O)(=O)O)C(C)/C=C/C=C/C1CC2C=CC3CC(C)CC(C)C3C2(C)C(=O)C12C(=O)NC(O)C2=O (stereo not drawn)
- Inhibition rate (DTH footpad thickness) ([2]; 0.5 mg/mouse): -0.7%
- Inhibition rate (DTH footpad thickness) ([2]; 2.0 mg/mouse): 56.3%
- Inhibition rate (DTH footpad thickness) ([2]; 8.0 mg/mouse): 85.2%

SMILES: CCC(OS(=O)(=O)O)C(C)/C=C/C=C/C1CC2C=CC3CC(C)CC(C)C3C2(C)C(=O)C12C(=O)CNC2=O (stereo not drawn)
- Inhibition rate (DTH footpad thickness) ([2]; 2.0 mg/mouse): 35.4%
